Experimental data as given in patent US9765061B2, “Trail enhancers for the selective killing of cancer cells” (The Scripps Research Institute, priority 2013, dated 2017).

Experiments:
[1] = system: primary human hepatocytes; test: Viability and apoptosis of primary human hepatocytes from normal donors; format: cell-based
Description: FIG. 8: Safety and pro-apoptotic. activity of (C12). Cells were incubated with TRAIL, (C12), […] (Bor) or a combination of TRAIL and (C12) or Bor as indicated, and cell viability (top panels) or the cleavage of PARP (bottom panels) was determined. (A) Lung cancer cell line A549. (B) Primary human hepatocytes from normal donor.
Therefore, to assess a potential utility of C12 for anti-cancer therapy, we compared the effects of these two compounds—(C12) and bartezomid (Bor)—on TRAIL-mediated apoptosis in cancerous A549 cells and primary human hepatocytes.
Cancer and normal cell culture. Lung cancer cell line A549 and colon cancer cell line HT29 were purchased from ATCC. Breast cancer cell line MDA-MB-468 was received from J. C. Reed (The Burnham Institute, La Jolla, Calif.). Cell lines were maintained in growth medium (GM): DMEM medium (4.5 g/l glucose) supplemented with 10% FBS (HyClone, Logan, Utah), L-glutamine, penicillin/streptomycin and nonessential ammo acids (Invitrogen, Carlsbad, Calif.). Normal human bronchial epithelial (NHBE) cells and normal human mammary epithelial (NHME) cells were obtained from Cambrex (East Rutherford, N.J.) and cultured as recommended by the manufacturer. Normal human colon smooth muscle cells were obtained from ScienCell Research Lab (San Diego, Calif.) and cultured as recommended by the manufacturer. Primary cultures of human hepatocytes (freshly plated; not cryopreserved) and culture medium were obtained from Celsis In Vitro Technologies (Baltimore, Md.). Upon receipt of the cells, the medium was gently aspirated from each well and replenished with InVitroGRO HI medium supplemented with Torpedo Antibiotic Mix (Celsis), and the plates were kept in a 5% CO2, at 37° C. in an incubator at saturating humidity. After 2-4 h, cells were stimulated as described in the text and FIG. legends.
(§1) Cytotoxicity was determined by using the XTT-based toxicology assay kit (Sigma, St. Louis, Miss.) in accordance with the manufacturer's instructions. For some experiments, to confirm the apoptotic nature of toxicity, cells were analyzed using protocols and instructions of the Annexin V-FITC apoptosis detection kit (Biovision, Mountain View, Calif.). In addition, caspase 3, 8 and 9 activities were determined by colorimetric assays (R&D System), and the data are expressed as fold increases compared to the values of untreated or control-treated cells (n=5).

A549 cell line = test: Viability of A549 cells, XTT-based assay, with or without TRAIL; format: cell-based, human
Description: FIG. 4: C12 sensitizes long cancer cell line A549 to TRAIL. (A) Viability of cells was examined after 24-hour incubation in media containing TRAIL (50 ng/ml), compound (C12) (1 μM), compound (C12R) (25 μM) or the indicated combination of TRAIL (T) with (C12) or (C12R). The chemical structures of (C12) and its stereoisomer (C12R) are shown on the right. (B) Viability of cells was examined after 24-hour incubation in media, containing TRAIL (50 ng/ml) and the indicated doses of C12. Viable cells remaining after the treatment were determined as a function of mitochondrial activity of living cells according to XTT-based toxicology assay kit (Sigma) and are shown as a percentage of viable untreated cells.
To test this hypothesis, we examined the effect of C12 in vitro on the activity of TRAIL against A549 cell line derived from a cancer sample of the human lung.
as §1

sXBP1 (UPR) = test: RT-PCR assay of spliced XBP1 mRNA (sXBP1) in macrophages; format: cell-based, mouse; conditions: FIG. 1D and 1E
From the text: FIG. 1: C12 induces the UPR in mammalian cells. (A and B). Comparison of the macrophage responsiveness to P. aeruginosa (P.a.), S. typhimurium (S.t), and S. aureus (S.a.). RT-PCR assay of XBP1 (A) and Western blot analysis (B) of p38, its phosphorylated form (p-p38) as well as phosphorylated forms of PERK (p-PERK) and eIF2α (p-eIF2α) in cell extracts after treatment with bacteria are shown. (C) Macrophages were stimulated with P. aeruginosa wild type (wt) or lasI mutant (ΔlasI), and cell extracts (total RNA or total protein) were prepared and analyzed as in (A and B). […] (F) Total RNA was prepared from lung of mice after inoculation of vehicle (-) or (C12) and analyzed in (D). […]
Among key biochemical signatures of the multicomponent ER stress pathway, known as the unfolded protein response (UPR), are the phosphorylation of the α-subunit of eukaryotic translation initiation factor-2 (eIF2α) and activation of the transcription factor XBP1/Hac1 (X-box binding protein-1 in metazoans and homologous to ATF/CREB in yeast, respectively) ^11. […] To initiate our studies, we exposed bone marrow-derived macrophages (BMDM) to these bacteria, and macrophage responsiveness was analyzed for biochemical markers of the UPR and the phosphorylation of the mitogen-activated protein kinase p38, as a common marker of TLR pathways. […]

cancerous cells = test: Sensitization of cancerous cells to TRAIL-mediated apoptosis (SAR panel); format: cell-based; conditions: a number of cancerous cells
From the text: Since (C12) is a prototypic member of the 3-oxo-AHL family, the structure-activity-relation (SAR) investigations were warranted to determine generic structural features of AHL, which are required for a cancer-stop and cancer preventing activity as well as for activation of the UPR. To address this questions, a set of AHLs and their analogs were synthesized (see List of AHLs and analogs), and the biological activity of ail compounds were examined on a panel of cancerous and normal cells. The prototypic examples of biochemical data for the selected analogs are shown in FIG. 9 and FIG. 10, whereas Table 2 summarizes the SAR studies for all compounds.
(§2) Cell stimulation. In all experiments, BMDM were stimulated with LPS (100 ng/ml), AHL (10-25 μM; usually BMDM and primary macrophages were stimulated by 25 μM of C12) or their combination as indicated in the figure legends. If not indicated, cancer and normal cells were stimulated with 40 ng/ml of TNFα, 20 ng/ml TRAIL and 10 μM (in case of cancer cells) or 25 μM (in case of normal cells) of AHL.

[2] = system: TRAIL-treated lung cancer cells; test: Toxicity against TRAIL-treated lung cancer cells; format: cell-based
Description: Considering the potential inherent pharmacokinetic liabilities associated with C12, a small series of compound (C12) analogues was tested against bone marrow-derived macrophages and TRAIL-treated lung cancer cells.
Cancer and normal cell culture. Lung cancer cell line A549 and colon cancer cell line HT29 were purchased from ATCC. Breast cancer cell line MDA-MB-468 was received from J. C. Reed (The Burnham Institute, La Jolla, Calif.). Cell lines were maintained in growth medium (GM): DMEM medium (4.5 g/l glucose) supplemented with 10% FBS (HyClone, Logan, Utah), L-glutamine, penicillin/streptomycin and nonessential ammo acids (Invitrogen, Carlsbad, Calif.). […]
as §1

[3] = system: bone marrow-derived macrophages (BMDM); test: Responses of bone marrow-derived macrophages to AHLs (toxicity, Western blot); format: cell-based, mouse
Description: FIG. 13. AHL-mediated inhibition of inflammation-induced NF-κB signaling is sufficient for rendering tumors susceptible to TRAIL-induced apoptosis. a) Western blot analysis of PARP cleavage in cancer cells stimulated for 3 h with TRAIL or its combination with different AHLs as indicated, b) Western blot analysis of PARP cleavage as well as phosphorylated forms of eIF2α and p38 in extracts from bone marrow-derived macrophages (BMDM) stimulated with (C12) or (3-N2), i.e., (S)-(3-N2), as indicated, c) Western blot analysis of PARP cleavage and temporal profiles of IκBα expression in BMDM extracts prepared after treatment with LPS or its combination with (C12) or (3-N2). d) Inhibitory effect of (C12) and its derivatives on LPS-induced TNF production in BMDM. e) Lung cancer cells were exposed to (3-N2) (10 μM), TRAIL (0.5 ng/ml), TNF (20 ng/ml) or their combinations as indicated. After 2 h, cell lysates were prepared and analyzed by Western blot for PARP cleavage, IκBα and actin.
Mice, bone marrow-derived macrophages and other cell culture, C57BL/6 mice were purchased from the Jackson Laboratory (Bar Harbor, Me.). Bone marrow-derived macrophages (BMDM) and murine embryonic fibroblasts (MEF) were prepared by using standard protocols that were approved by the TSRI Animal Care and Use Committee. L929/NCTC clone 929 (connective tissue, mouse) cell lines were purchased from ATCC (Manassas, Va.). MEFs and L929 cell line were maintained in GM (see above). BMDM were cultured in 70% GM and 30% L929 conditioned medium. In general, cells (˜60-70% confluence) were incubated in fresh medium for 12-14 h before stimulation.
Antibodies and Western blot analysis. Anti-eIF2α, phospho-eIF2α[…](p-eIF2α), p38, p-p38 (Thr180/Tyr132), p-RelA (Ser536), p-I κB ? 32/36), PARP 20 antibodies were purchased from Cell Signaling; anti-RelA, I κB α, IκBβ were from Santa Cruz Biotechnology. Cellular extracts were prepared and analyzed by Western blot assay as previously described.^E3
as §2

cancer and normal cells = test: XTT-based viability of cancer and normal cells grown 18 h (FIG. 12); format: cell-based; conditions: TRAIL alone or the same doses of C12 without TRAIL
Description: FIG. 12. (C12) promotes the TRAIL-mediated killing of cancer cells, a), c) Western blot analysis of PARP cleavage in cancer or normal cells treated for 3 h with TRAIL, (C12) or a combination of both, as indicated, b), d) XTT-based assay monitoring the viability of cancer and normal cells grown for 18 h in media containing TRAIL and the indicated doses of (C12). Cell survival was ˜100% in control samples (untreated cells) as well as in samples incubated with TRAIL alone or the same doses of (C12) without TRAIL.
Cancer and normal cell culture. Lung cancer cell line A549 and colon cancer cell line HT29 were purchased from ATCC. Breast cancer cell line MDA-MB-468 was received from J. C. Reed (The Burnham Institute, La Jolla, Calif.). […]
as §1

CC(C)C[C@H](NC(=O)[C@H](Cc1ccccc1)NC(=O)c1cnccn1)B(O)O [Bor, bortezomib, reference compound]
toxicity and apoptosis in hepatocytes in the presence of TRAIL ([1]; FIG. 8B): substantially enhanced | toxicity toward hepatocytes, drug alone ([1]; FIG. 8B): relatively low levels of toxicity | sensitivity of A549 cells to TRAIL in the presence of compound (A549 cell line; FIG. 8A): comparable increase in sensitivity

CCCCCCCCCC(=O)CC(=O)N[C@@H]1CCOC1=O [Compound 2]
induction of sXBP1 / activation of the UPR (sXBP1 (UPR)): ineffective | cell growth and viability, compound alone (A549 cell line; C12 1 μM or 25 μM, C12R 25 μM, no TRAIL): practically unchanged | cell growth and viability, combination with TRAIL (A549 cell line; TRAIL (50 ng/ml) and C12R (25 μM)): practically unchanged

[N-]=[N+]=NCCCCCCCCCC(=O)CC(=O)N[C@H]1CCOC1=O [Compound 13]
sensitization of cancerous cells to TRAIL-mediated apoptosis (cancerous cells): strongly sensitize

CCCCCCCCCC1(CC(=O)N[C@H]2CCOC2=O)N=N1 [Compound 15]
toxicity to human hepatocytes, compound alone or in combination with TRAIL ([1]; hepatocytes from normal donors): non-toxic | synergistic effects on TRAIL-induced apoptosis in cancer cells ([2]; compared with bortezomib): comparable with those for an anti-cancer agent bortezomib | toxicity against TRAIL-treated cancer cells ([2]; in the presence of TRAIL): exhibited toxicity | sensitization of cancerous cells to TRAIL-mediated apoptosis (cancerous cells): strongly sensitize | PARP cleavage in macrophages ([3]; Western blot, FIG. 13b): did not induce | eIF2α phosphorylation in macrophages ([3]; Western blot, FIG. 13b): induced eIF2α phosphorylation in a similar fashion | p38 phosphorylation in macrophages ([3]; Western blot, FIG. 13b): did not induce | toxicity to macrophages ([3]; bone marrow-derived macrophages): nontoxic | blocking LPS-induced re-synthesis of IκBα ([3]; macrophages activated by LPS, FIG. 13c): equally effective

[N-]=[N+]=NCCCCCCCCCC1(CC(=O)N[C@H]2CCOC2=O)N=N1 [Compound 16]
sensitization of cancerous cells to TRAIL-mediated apoptosis (cancerous cells): strongly sensitize

TRAIL: recombinant human tumor necrosis factor-related apoptosis-inducing ligand, purchased from R&D System
viability of normal human hepatocytes, TRAIL alone ([1]; FIG. 8B): unchanged | viability and growth, TRAIL alone (A549 cell line; TRAIL 50 ng/ml): did not significantly affect | Cell survival (cancer and normal cells): ~100%
